In publication PMC9879382 (Prostaglandins & other lipid mediators, 2022) one finds IC50, half-life and microsomal CLint data, which are given here for twelve molecules.

In series [1] the target is T1, rat sEH (Rattus norvegicus, UniProt P80299).
T1 sequence (P80299 1-554): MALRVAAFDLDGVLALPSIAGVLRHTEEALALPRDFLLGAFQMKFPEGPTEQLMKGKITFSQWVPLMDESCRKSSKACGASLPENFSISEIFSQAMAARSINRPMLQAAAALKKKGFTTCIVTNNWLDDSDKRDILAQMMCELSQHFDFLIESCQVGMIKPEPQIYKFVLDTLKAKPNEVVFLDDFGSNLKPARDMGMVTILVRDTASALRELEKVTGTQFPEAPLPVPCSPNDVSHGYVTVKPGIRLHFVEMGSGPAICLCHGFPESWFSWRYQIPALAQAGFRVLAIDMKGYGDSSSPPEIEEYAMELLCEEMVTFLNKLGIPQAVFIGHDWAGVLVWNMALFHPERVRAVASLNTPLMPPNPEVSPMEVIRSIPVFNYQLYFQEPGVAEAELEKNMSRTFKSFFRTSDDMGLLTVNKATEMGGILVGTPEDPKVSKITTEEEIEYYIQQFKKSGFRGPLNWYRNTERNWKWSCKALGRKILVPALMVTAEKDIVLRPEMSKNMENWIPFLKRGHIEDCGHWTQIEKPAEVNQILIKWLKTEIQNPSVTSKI
Description: sEH inhibition assay. It counts as biochemical.

Series [2] concerns the target T2, mouse sEH (Mus musculus, UniProt P34914).
T2 sequence (P34914 1-554): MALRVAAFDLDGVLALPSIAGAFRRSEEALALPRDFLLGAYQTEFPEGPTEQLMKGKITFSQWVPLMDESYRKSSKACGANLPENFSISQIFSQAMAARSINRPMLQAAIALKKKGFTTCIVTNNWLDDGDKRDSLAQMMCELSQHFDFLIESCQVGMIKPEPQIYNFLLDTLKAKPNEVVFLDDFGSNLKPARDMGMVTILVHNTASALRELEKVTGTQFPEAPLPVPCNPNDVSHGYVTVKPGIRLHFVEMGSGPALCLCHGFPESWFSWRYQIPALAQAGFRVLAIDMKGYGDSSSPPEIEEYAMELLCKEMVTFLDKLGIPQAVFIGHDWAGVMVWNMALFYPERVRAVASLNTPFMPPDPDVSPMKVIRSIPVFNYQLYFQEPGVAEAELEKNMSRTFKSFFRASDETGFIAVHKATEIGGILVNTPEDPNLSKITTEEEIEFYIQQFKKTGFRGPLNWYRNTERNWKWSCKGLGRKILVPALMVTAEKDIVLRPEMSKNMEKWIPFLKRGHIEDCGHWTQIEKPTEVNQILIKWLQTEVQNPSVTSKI
Kind of series: sEH inhibition assay. It counts as biochemical.

Series [3] concerns the target T3, human sEH (Homo sapiens, UniProt P34913).
T3 sequence (P34913 1-555): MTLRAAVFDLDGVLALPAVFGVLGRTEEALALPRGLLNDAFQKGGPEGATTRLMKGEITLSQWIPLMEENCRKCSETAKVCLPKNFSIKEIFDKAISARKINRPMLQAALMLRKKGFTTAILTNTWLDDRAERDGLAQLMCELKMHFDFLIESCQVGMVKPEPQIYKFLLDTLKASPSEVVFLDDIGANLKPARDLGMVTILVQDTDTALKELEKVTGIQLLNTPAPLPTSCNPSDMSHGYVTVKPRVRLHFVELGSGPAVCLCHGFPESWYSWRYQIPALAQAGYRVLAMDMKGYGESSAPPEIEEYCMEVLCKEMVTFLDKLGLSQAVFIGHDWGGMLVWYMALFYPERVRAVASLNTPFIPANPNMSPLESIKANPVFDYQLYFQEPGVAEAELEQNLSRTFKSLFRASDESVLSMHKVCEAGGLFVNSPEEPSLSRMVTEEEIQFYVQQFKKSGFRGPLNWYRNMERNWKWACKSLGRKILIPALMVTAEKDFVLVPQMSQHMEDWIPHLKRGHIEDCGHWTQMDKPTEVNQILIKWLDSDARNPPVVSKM
Kind of series: sEH inhibition assay. Particulars: CMNPC 5 μM, pH 7.4, 30 °C. Type of series: biochemical.

Series [4] in a line: Microsomal liver stability assay, mouse. Type of series: in vitro ADME. The note with it: pH 7.4.
A short description of series [5]: Microsomal liver stability assay, rat. It counts as in vitro ADME. The note with it: both, pH 7.4.
A short description of series [6]: Microsomal liver stability assay, human. It counts as in vitro ADME. The note with it: pH 7.4.
Series [7] concerns the target T4, human FAAH (Homo sapiens, UniProt O00519).
T4 sequence (O00519 1-579): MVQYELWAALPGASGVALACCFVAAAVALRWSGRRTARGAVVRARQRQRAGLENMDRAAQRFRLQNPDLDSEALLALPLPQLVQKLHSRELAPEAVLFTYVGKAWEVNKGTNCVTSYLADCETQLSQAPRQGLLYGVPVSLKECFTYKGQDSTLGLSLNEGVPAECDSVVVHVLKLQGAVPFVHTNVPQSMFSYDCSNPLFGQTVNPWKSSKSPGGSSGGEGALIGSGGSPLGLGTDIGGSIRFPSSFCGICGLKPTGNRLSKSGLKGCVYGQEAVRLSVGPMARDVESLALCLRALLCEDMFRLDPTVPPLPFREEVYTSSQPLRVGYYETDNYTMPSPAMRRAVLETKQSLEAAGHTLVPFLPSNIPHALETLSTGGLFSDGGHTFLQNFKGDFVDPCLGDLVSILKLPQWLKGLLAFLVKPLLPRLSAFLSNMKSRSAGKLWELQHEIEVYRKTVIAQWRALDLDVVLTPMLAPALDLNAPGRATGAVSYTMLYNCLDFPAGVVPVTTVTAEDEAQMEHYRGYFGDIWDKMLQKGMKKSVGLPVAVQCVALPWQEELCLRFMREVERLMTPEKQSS
Description: FAAH inhibition assay. Type of series: biochemical. Particulars: OMP 50 μM, pH 8, 37 °C.

[8] abbreviates: Human sEH IC50, human recombinant sEH.
Where [9] appears, read: Human FAAH IC50, human recombinant FAAH.
[10] abbreviates: read-out: Rat sEH IC50, rat sEH, CMNPC 5 μM, pH 7.4, 30 °C.

Like-named read-outs stand apart in the source and are kept apart here.

With `O=C(Nc1ccc(-c2nc3ccccc3s2)cc1)C1CCN(S(=O)(=O)c2ccccc2C(F)(F)F)CC1` [Compound 7a, N-(4-(benzo[d]thiazol-2-yl)phenyl)-1-((2-(trifluoromethyl)phenyl)sulfonyl)piperidine-4-carboxamide], the IC50 in series [1] was 5.7 nM; in series [2], 7210 nM; in series [3] (setting [8]) it was 3.1 nM; in series [7] (setting [9]) it was 0.0097 µM. Besides, the figures for the half-life at 1 μM in series [4] (mouse liver microsomes), in series [5] (rat liver microsomes) and in series [6] (human liver microsomes) were 15.8 min, 14.7 min and 24 min, respectively. The intrinsic clearance (microsomal CLint) at 1 μM was found to be 87 µL/min/mg in series [4] (mouse liver microsomes), 94 µL/min/mg in series [5] (rat liver microsomes) and 57 µL/min/mg in series [6] (human liver microsomes).
`N#Cc1ccccc1S(=O)(=O)N1CCC(C(=O)Nc2ccc(-c3nc4ccccc4s3)cc2)CC1` [Compound 7b, N-(4-(benzo[d]thiazol-2-yl)phenyl)-1-((2-cyanophenyl)sulfonyl)piperidine-4-carboxamide]: the IC50 in series [1] came out at 185 nM; in series [2], 578 nM; in series [3] (setting [8]) it was 19.5 nM; in series [7] (setting [9]) it was 0.287 µM.
Taken in the same sequence, the figures for `O=C(Nc1ccc(-c2nc3ccccc3s2)cc1)C1CCN(S(=O)(=O)c2cccc(C(F)(F)F)c2)CC1` [Compound 7c, N-(4-(benzo[d]thiazol-2-yl)phenyl)-1-((3-(trifluoromethyl)phenyl)sulfonyl)piperidine-4-carboxamide] were 124 nM, 4310 nM, 89.3 nM and 0.0223 µM.
Turning to `O=C(Nc1ccc(-c2nc3ccccc3s2)cc1)C1CCN(S(=O)(=O)c2ccc(C(F)(F)F)cc2)CC1` [Compound 7d, N-(4-(benzo[d]thiazol-2-yl)phenyl)-1-((4-(trifluoromethyl)phenyl)sulfonyl)piperidine-4-carboxamide], the IC50 in series [1] was determined as 28.9 nM; in series [2] it was 9180 nM; in series [3] (setting [8]) it was 51.5 nM; in series [7] (setting [9]), 0.0481 µM.
On to `O=C(Nc1ccc(-c2nc3ccccc3s2)cc1)C1CCN(S(=O)(=O)c2ccc([N+](=O)[O-])cc2)CC1` [Compound 7e, N-(4-(benzo[d]thiazol-2-yl)phenyl)-1-((4-nitrophenyl)sulfonyl)piperidine-4-carboxamide], for which the concentration for half-maximal inhibition (IC50) was 4480 nM in series [1] and greater than 10000 nM in series [2].
Take `O=C(Nc1ccc(-c2nc3ccccc3s2)cc1)C1CCN(S(=O)(=O)c2ccc(F)cc2Cl)CC1` [Compound 7f, N-(4-(benzo[d]thiazol-2-yl)phenyl)-1-((2-chloro-4-fluorophenyl)sulfonyl)piperidine-4-carboxamide]: the IC50 in series [1] is 116 nM; in series [2], 267 nM; in series [3] (setting [8]) it was 16.9 nM; in series [7] (setting [9]), 0.0191 µM.
`O=C(Nc1ccc(-c2nc3ccccc3s2)cc1)C1CCN(S(=O)(=O)c2ccc(C(F)(F)F)cc2Cl)CC1` [Compound 7g, N-(4-(benzo[d]thiazol-2-yl)phenyl)-1-((2-chloro-4-(trifluoromethyl)phenyl)sulfonyl) piperidine-4-carboxamide]: the IC50 came out at 859 nM in series [1] (setting [10]); 9060 nM in series [2] (read-out: Mouse sEH IC50, mouse sEH, CMNPC 5 μM, pH 7.4, 30 °C); 432 nM in series [3] (read-out: Human sEH IC50, human recombinant sEH); 0.0266 µM in series [7] (read-out: Human FAAH IC50, human recombinant FAAH).
For the molecule `O=C(Nc1ccc(-c2nc3ccccc3s2)cc1)C1CCN(S(=O)(=O)c2ccc(F)cc2Br)CC1` [Compound 7h, N-(4-(benzo[d]thiazol-2-yl)phenyl)-1-((2-bromo-4-fluorophenyl)sulfonyl)piperidine-4-carboxamide], the IC50 in series [1] was determined as 11.8 nM; in series [2] it was 402 nM; in series [3] (setting [8]), 8.2 nM; in series [7] (setting [9]), 0.0289 µM.
Taken in the same sequence, the figures for `O=C(Nc1ccc(-c2nc3ccccc3s2)cc1)C1CCN(S(=O)(=O)c2cc(C(F)(F)F)cc(C(F)(F)F)c2)CC1` [Compound 7j, N-(4-(benzo[d]thiazol-2-yl)phenyl)-1-((3,5-bis(trifluoromethyl)phenyl)sulfonyl)piperidine-4-carboxamide] were 2910 nM, greater than 10000 nM, 4840 nM and 0.0419 µM.
Taken in the same sequence, the figures for `O=C(Nc1ccc(-c2nc3ccccc3s2)cc1)C1CCN(S(=O)(=O)c2c(Cl)cc(Br)cc2Cl)CC1` [Compound 7k, N-(4-(benzo[d]thiazol-2-yl)phenyl)-1-((4-bromo-2,6-dichlorophenyl)sulfonyl)piperidine-4-carboxamide] were 42.5 nM, 1790 nM, 41 nM and 0.0897 µM.
With `C[C@]12CC[C@H]3[C@@H](CCC4=CC(=O)CC[C@@]43C)[C@@H]1CC[C@@H]2O` [Testosterone (control), testosterone, reference compound], the microsomal CLint at 1 μM in series [4] (microsomes) came out at 280 µL/min/mg; in series [5] (microsomes), 1250 µL/min/mg; in series [6] (microsomes), 61 µL/min/mg. For the same molecule, the half-life at 1 μM in series [5] (microsomes) was found to be 1.1 min.
In the case of `O=C(Nc1ccc(OC(F)(F)F)cc1)NC1CCC(Oc2ccc(C(=O)O)cc2)CC1` (stereo not shown) [t-TUCB, reference compound], in series [1] (setting [10]), the IC50 is 9.3 nM.
